Like-named read-outs stand apart in the source and are kept apart here. Where a SMILES comes first, the peptide text is derived from it. Side-chain parts run from the residue outwards. The star is where a group is joined. X1 = CC(=O)N1CCC(C(=O)N(CCCN2CCC(Cc3ccc(C(=O)*)cc3)CC2)c2ccc(C)c(Cl)c2)CC1; PEG4 = NCCOCCOCCOCCOCCC(=O)O Bounds are passed on as bounds.

Series [1] in a line: CD spectroscopy of isolated peptides. As to conditions: 10 μM, [θ]222nm. The class given is physicochemical.
The target of the next series is CCR5 (Homo sapiens, UniProt P51681). Put plainly: RANTES-induced calcium mobilization assay in CCR5-expressing HEK293 cells. The class given is cell-based. As to conditions: RANTES 34.6 nM, HEK293 cells expressing Gα15 and CCR5, Fluo-4.
A short description of series [2]: Solubility (saturated solution, RP-HPLC). It is filed as physicochemical.
A further series deals with proteinase K (Parengyodontium album, UniProt P06873). As to the kind of experiment: Metabolic stability in proteinase K solution. As to conditions: proteinase K 100 ng/mL, 50 μM peptide, 37 °C, 4-h incubation, read-out: original amount remaining. It is filed as in vitro ADME.
Series [3] is described as follows: Metabolic stability in rat plasma. The class given is in vitro ADME. As to conditions: 37 °C, 4-h incubation, read-out: degradation.
Series [4] relates to HIV-1 BaL strain (subtype B, R5). As to the kind of experiment: HIV-1 infection assay (p24 ELISA), laboratory-adapted R5 virus. It is filed as cell-based. As to conditions: Human immunodeficiency virus 1, BAL, CEMx174 5.25M7. For orientation: ELISA stands for enzyme-linked immunosorbent assay.
Series [5] deals with HIV-1 91US_4 (subtype B, R5). As to the kind of experiment: HIV-1 infection assay, primary isolate 91US_4. The class given is cell-based. As to conditions: Human immunodeficiency virus 1, primary isolate 91US_4, subtype B, CEMx174 5.25 M7 cells.
The subject of series [6] is HIV-1 J32228M4 (subtype D, R5). Put plainly: HIV-1 infection assay, primary isolate J32228M4. It is filed as cell-based. As to conditions: Human immunodeficiency virus 1, CEMx174 5.25 M7 cells.
The subject of series [7] is HIV-1 strain 89BZ167 (subtype B, X4). Put plainly: HIV-1 infection assay, primary isolate 89BZ167. The class given is cell-based. As to conditions: Human immunodeficiency virus 1, CEMx174 5.25M7.
Series [8] concerns HIV-1 92UG029 (subtype A, X4). As to the kind of experiment: HIV-1 infection assay, primary isolate 92UG029. It is filed as cell-based. As to conditions: Human immunodeficiency virus 1, primary isolate 92UG029, subtype A, CEMx174 5.25 M7 cells.
Another series relates to CEMx174 5.25M7 cells. As to the kind of experiment: Cell Counting Kit-8 (CCK8) cytotoxicity assay. The class given is cell-based. As to conditions: at 2000 nM. In general terms: Tetrazolium assays rely on reduction of a dye to a coloured formazan, in cell work by metabolically active cells.
Where [9] appears, read: PBS pH 7.4, room temperature, read-out: Solubility in PBS (pH 7.4).

Chain of proteinase K (P06873 106-384): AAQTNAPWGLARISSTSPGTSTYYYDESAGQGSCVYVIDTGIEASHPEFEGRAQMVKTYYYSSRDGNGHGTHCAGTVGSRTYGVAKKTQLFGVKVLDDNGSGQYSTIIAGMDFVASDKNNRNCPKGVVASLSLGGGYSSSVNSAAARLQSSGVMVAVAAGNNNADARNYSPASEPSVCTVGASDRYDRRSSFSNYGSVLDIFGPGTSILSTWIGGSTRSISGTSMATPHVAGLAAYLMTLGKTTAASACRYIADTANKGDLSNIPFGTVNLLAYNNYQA
Chain of CCR5 (P51681 whole entry): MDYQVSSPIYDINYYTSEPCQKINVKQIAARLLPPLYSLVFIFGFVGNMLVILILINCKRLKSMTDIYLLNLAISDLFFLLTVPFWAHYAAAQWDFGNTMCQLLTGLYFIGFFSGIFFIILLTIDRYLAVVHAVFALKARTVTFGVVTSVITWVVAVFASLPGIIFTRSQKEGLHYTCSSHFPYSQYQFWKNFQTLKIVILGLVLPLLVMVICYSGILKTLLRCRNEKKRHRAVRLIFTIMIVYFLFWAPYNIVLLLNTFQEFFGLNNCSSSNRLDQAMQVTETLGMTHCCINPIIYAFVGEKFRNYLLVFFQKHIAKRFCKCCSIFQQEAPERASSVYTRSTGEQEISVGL

A word on the IC50: it is the point on the concentration scale where inhibition reaches its midpoint. For the compound `CC[C@H](C)[C@H](NC(=O)[C@H](CO)NC(=O)[C@H](CCC(=O)O)NC(=O)[C@H](CCC(=O)O)NC(=O)[C@H](CCC(N)=O)NC(=O)[C@H](CCCCN)NC(=O)[C@H](CCCCN)NC(=O)[C@@H](NC(=O)[C@H](CCC(N)=O)NC(=O)[C@H](CCC(=O)O)NC(=O)[C@H](CCC(=O)O)NC(=O)[C@@H](NC(=O)[C@H](CCCCN)NC(=O)[C@H](CCCCN)NC(=O)[C@@H](NC(=O)[C@H](CC(C)C)NC(=O)[C@H](CCC(=O)O)NC(=O)[C@H](CCC(=O)O)NC(=O)[C@H](CO)NC(=O)[C@H](CCCCN)NC(=O)[C@H](CCCCN)NC(=O)[C@@H](NC(=O)[C@H](CC(C)C)NC(=O)[C@H](CCC(=O)O)NC(=O)[C@H](CCC(=O)O)NC(=O)[C@@H](NC(=O)[C@H](CCCCN)NC(=O)[C@H](CCCCN)NC(=O)[C@H](CC(=O)O)NC(=O)[C@H](Cc1c[nH]c2ccccc12)NC(=O)[C@H](CCC(=O)O)NC(=O)[C@H](CCC(=O)O)NC(=O)[C@H](Cc1c[nH]c2ccccc12)NC(=O)[C@@H](NC(=O)[C@H](CCSC)NC(C)=O)[C@@H](C)O)[C@@H](C)CC)[C@@H](C)CC)[C@@H](C)CC)[C@@H](C)CC)[C@@H](C)CC)C(=O)N[C@@H](CCCCN)C(=O)N[C@@H](CCCCN)C(N)=O` [AP3] (Ac-MTWEEWDKKIEELIKKSEELIKKIEEQIKKQEESIKK-NH2), in series [1], the “helical content (isolated peptide)” value turned out to be 86%. Further, the half-inhibitory concentration (IC50) at CCR5 was more than 625 nM.
The fraction remaining is the share of the starting amount still present when the sample was taken. Take enfuvirtide: the solubility thermodynamic at 24 h came out at 1020 ± 30 µg/mL in series [2] (setting [9]) and 330 ± 10 µg/mL in [2] (water (dd-H2O), H2O, room temperature, read-out: Solubility in H2O). On proteinase K, the fraction remaining at 4 h, 50 μM is 35.8%. Also, the metabolised at 4 h, 50 μM in series [3] came out at 68%.
A word on the EC50: it is the concentration at which the effect is half-maximal. As for `CC(=O)N1CCC(C(=O)N(CCCN2CCC(Cc3ccc(C(N)=O)cc3)CC2)c2ccc(C)c(Cl)c2)CC1` [TAK-220], the EC50 in series [4] is 23.8 ± 13.3 nM; in series [5], 12.1 ± 2.7 nM; in series [6] it was 161 ± 6.6 nM; in series [7], more than 300 nM; in [8], more than 300 nM. In addition, the IC50 at CCR5 was 0.74 nM.
What is called solubility is the dissolved amount per volume that the medium holds. As for `CC[C@H](C)[C@H](NC(=O)[C@H](CO)NC(=O)[C@H](CCC(=O)O)NC(=O)[C@H](CCC(=O)O)NC(=O)[C@H](CCC(N)=O)NC(=O)[C@H](CCCCN)NC(=O)[C@H](CCCCN)NC(=O)[C@@H](NC(=O)[C@H](CCC(N)=O)NC(=O)[C@H](CCC(=O)O)NC(=O)[C@H](CCC(=O)O)NC(=O)[C@@H](NC(=O)[C@H](CCCCN)NC(=O)[C@H](CCCCN)NC(=O)[C@@H](NC(=O)[C@H](CC(C)C)NC(=O)[C@H](CCC(=O)O)NC(=O)[C@H](CCC(=O)O)NC(=O)[C@H](CO)NC(=O)[C@H](CCCCN)NC(=O)[C@H](CCCCN)NC(=O)[C@@H](NC(=O)[C@H](CC(C)C)NC(=O)[C@H](CCC(=O)O)NC(=O)[C@H](CCC(=O)O)NC(=O)[C@@H](NC(=O)[C@H](CCCCN)NC(=O)[C@H](CCCCN)NC(=O)[C@H](CC(=O)O)NC(=O)[C@H](Cc1c[nH]c2ccccc12)NC(=O)[C@H](CCC(=O)O)NC(=O)[C@H](CCC(=O)O)NC(=O)[C@H](Cc1c[nH]c2ccccc12)NC(=O)[C@@H](NC(=O)[C@H](CCSC)NC(C)=O)[C@@H](C)O)[C@@H](C)CC)[C@@H](C)CC)[C@@H](C)CC)[C@@H](C)CC)[C@@H](C)CC)C(=O)N[C@@H](CCCCN)C(=O)N[C@@H](CCCCN)C(=O)N[C@@H](CCCCNC(=O)CCOCCOCCOCCOCCNC(=O)c1ccc(CC2CCN(CCCN(C(=O)C3CCN(C(C)=O)CC3)c3ccc(C)c(Cl)c3)CC2)cc1)C(N)=O` [AP3P4E] (Ac-MTWEEWDKKIEELIKKSEELIKKIEEQIKKQEESIKKK([PEG4-X1])-NH2), the cytotoxicity entry in the series with CEMx174 5.25M7 cells was “no cytotoxicity”. The “helical content (isolated peptide)” value in series [1] is given as 83%. In addition, the solubility at 24 h in series [2] (setting [9]) was more than 60000 µg/mL; in series [2] (dd-H2O, H2O, room temperature, read-out: Solubility in H2O), more than 60000 µg/mL. In the series with proteinase K, the share remaining at 4 h, 50 μM turned out to be 89.9%.

(Values after paper PMC10223265 (Viruses, 2023).)
